pKi: −log10 of the molar value.
What was measured:
[1] = Ratio of affinity versus antagonist [3H]-QNB divided by affinity versus agonist [3H]OXO-M; assay type: functional
[2] = molecular target: Muscarinic acetylcholine receptor; assay: The binding affinity was measured as inhibition of binding of [3H]- oxotremorine-M to muscarinic acetylcholine receptor in rat cerebral cortical membranes.; assay type: cell membranes, Membrane
[3] = molecular target: T1, Muscarinic acetylcholine receptor M2 (Homo sapiens, UniProt P08172); assay type: cell membranes, CHO
T1 sequence (P08172 whole entry): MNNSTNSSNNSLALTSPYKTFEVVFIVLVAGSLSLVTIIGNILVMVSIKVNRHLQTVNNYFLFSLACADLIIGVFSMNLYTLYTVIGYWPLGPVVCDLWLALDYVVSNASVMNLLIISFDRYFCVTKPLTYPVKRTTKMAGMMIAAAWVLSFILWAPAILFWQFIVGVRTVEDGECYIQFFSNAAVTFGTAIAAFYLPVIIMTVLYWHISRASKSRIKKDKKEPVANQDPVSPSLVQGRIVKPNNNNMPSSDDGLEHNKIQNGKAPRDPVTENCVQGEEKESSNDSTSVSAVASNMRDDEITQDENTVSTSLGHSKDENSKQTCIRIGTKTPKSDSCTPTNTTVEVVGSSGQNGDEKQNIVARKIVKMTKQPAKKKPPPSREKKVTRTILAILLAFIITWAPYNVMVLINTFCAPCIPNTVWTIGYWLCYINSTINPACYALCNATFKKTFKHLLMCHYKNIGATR

[4] = molecular target: T2, Muscarinic acetylcholine receptor M4 (Homo sapiens, UniProt P08173); assay: Inhibition of [3H]- oxotremorine-M binding to human Muscarinic acetylcholine receptor M4 in CHO cell membranes
T2 sequence (P08173 whole entry): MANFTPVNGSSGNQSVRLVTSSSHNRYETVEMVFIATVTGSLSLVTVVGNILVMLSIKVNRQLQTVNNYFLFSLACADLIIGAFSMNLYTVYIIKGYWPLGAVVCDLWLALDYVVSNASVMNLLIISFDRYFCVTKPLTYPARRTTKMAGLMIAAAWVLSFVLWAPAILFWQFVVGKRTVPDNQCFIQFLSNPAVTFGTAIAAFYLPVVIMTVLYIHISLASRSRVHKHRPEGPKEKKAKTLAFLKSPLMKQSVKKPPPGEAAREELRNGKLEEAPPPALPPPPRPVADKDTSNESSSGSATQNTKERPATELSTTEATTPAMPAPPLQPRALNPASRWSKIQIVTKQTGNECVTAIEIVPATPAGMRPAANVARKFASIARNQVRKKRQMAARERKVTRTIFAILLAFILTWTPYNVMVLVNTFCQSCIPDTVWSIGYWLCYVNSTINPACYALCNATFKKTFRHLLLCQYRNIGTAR

[5] = molecular target: Muscarinic acetylcholine receptor; assay type: cell membranes, Rattus norvegicus, Membrane
[6] = molecular target: T3, Muscarinic acetylcholine receptor M1 (Homo sapiens, UniProt P11229); assay: Inhibition of [3H]- oxotremorine-M binding to human Muscarinic acetylcholine receptor M1 expressed in CHO cell membranes; assay type: cell-based
T3 sequence (P11229 whole entry): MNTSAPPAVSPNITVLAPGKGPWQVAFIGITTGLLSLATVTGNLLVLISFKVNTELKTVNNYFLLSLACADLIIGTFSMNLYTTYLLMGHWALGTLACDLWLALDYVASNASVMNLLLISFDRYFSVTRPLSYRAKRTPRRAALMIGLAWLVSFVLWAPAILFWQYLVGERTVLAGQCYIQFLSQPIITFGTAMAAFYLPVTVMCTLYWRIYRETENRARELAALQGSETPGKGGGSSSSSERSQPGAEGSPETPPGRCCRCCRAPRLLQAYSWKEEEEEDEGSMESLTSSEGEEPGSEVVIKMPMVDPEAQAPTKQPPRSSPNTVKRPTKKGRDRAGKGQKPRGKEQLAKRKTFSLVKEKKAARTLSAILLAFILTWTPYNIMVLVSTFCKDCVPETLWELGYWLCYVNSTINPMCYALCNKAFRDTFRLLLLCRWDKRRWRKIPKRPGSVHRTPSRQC

[7] = molecular target: T3, Muscarinic acetylcholine receptor M1; assay: The binding affinity was measured as inhibition of binding of [3H]- quinuclidinyl benzilate to Muscarinic acetylcholine receptor M1 in membranes of CHO cells; assay type: cell membranes
[8] = molecular target: T2, Muscarinic acetylcholine receptor M4; assay type: cell membranes, CHO
[9] = molecular target: T1, Muscarinic acetylcholine receptor M2; assay: Inhibition of [3H]- oxotremorine-M binding to human Muscarinic acetylcholine receptor M2 expressed in CHO cell membranes
[10] = molecular target: T4, Muscarinic acetylcholine receptor M3 (Homo sapiens, UniProt P20309); assay type: cell membranes, CHO
Target sequence in this assay (P20309 whole entry): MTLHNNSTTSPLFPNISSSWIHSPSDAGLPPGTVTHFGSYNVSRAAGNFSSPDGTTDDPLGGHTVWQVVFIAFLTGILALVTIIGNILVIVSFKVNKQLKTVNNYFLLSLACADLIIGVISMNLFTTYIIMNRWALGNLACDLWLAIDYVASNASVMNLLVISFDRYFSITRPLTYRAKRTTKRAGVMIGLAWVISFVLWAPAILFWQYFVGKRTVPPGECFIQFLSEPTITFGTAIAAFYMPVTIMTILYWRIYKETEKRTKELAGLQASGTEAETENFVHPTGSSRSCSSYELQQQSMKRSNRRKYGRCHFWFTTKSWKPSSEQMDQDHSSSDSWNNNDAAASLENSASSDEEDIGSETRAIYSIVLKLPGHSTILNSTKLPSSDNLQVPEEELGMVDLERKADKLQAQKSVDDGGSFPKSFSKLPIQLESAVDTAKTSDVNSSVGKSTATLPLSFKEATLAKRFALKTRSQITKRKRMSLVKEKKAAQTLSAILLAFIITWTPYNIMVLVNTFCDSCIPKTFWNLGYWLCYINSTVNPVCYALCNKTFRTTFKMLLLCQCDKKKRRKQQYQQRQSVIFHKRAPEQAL

[11] = molecular target: T4, Muscarinic acetylcholine receptor M3; assay: The binding affinity was measured as inhibition of binding of [3H]- quinuclidinyl benzilate to m3 Muscarinic acetylcholine receptor M3 in membranes of CHO cells; assay type: cell membranes
Target sequence in this assay (P20309 whole entry): as above

[12] = molecular target: T5, Muscarinic acetylcholine receptor M1 (Homo sapiens) (UniProt P11229); settings: CHO; at 100 µM
T5 sequence (whole entry): T3 sequence (P11229 whole entry)
Description: Inhibition of binding of [3H]- quinuclidinyl benzilate to Muscarinic acetylcholine receptor M1 in membranes of CHO cells at 100 uM compound concentration

[13] = molecular target: T4, Muscarinic acetylcholine receptor M3; settings: CHO; at 100 µM
Target sequence in this assay (P20309 whole entry, looked up): as the sequence (P20309 whole entry) above
Description: Inhibition of binding of [3H]- quinuclidinyl benzilate to Muscarinic acetylcholine receptor M3 in membranes of CHO cells at 100 uM compound concentration

[14] = molecular target: Muscarinic acetylcholine receptor
[15] = molecular target: Muscarinic acetylcholine receptor; remark: listed apart in the source
Description: Inhibition of [3H]- quinuclidinyl benzilate binding to Muscarinic acetylcholine receptor of rat heart membranes.

[16] = molecular target: T5, Muscarinic acetylcholine receptor M1 (Homo sapiens); settings: CHO
[17] = molecular target: T5, Muscarinic acetylcholine receptor M1 (Homo sapiens); assay: Inhibition of binding of [3H]- quinuclidinyl benzilate to Muscarinic acetylcholine receptor M1 in membranes of CHO cells at 100 uM; assay type: cell membranes
[18] = molecular target: Muscarinic acetylcholine receptor; assay: The binding affinity was measured as inhibition of binding of [3H]- quinuclidinyl benzilate to Muscarinic acetylcholine receptor; assay type: protein assay

CN1C2CCCC1C(OC(=O)c1ccc([N+](=O)[O-])cc1)C2 (stereo not given)
Ratio [1]: > 10
Ki [2]: 14000 nM

COc1ccc(C(=O)OC2CC3CCCC2N3)cc1 (stereo not given)
Ratio [1]: > 60
Ki [2]: 1700 nM

CN1C2CCCC1C(OC(=O)OCC(Cl)(Cl)Cl)C2 (stereo not given)
Ratio [1]: 31
pKi [3]: 6.09
pKi [4]: 5.64
Ki [5]: 23000 nM
pKi [6]: 6.00
pKi [7]: 4.57
pKi [8]: 7.38
pKi [9]: 6.04
Ki [2]: 720 nM
pKi [10]: 5.17

COc1ccccc1C(=O)OC1CC2CCCC1N2C (stereo not given)
Ratio [1]: 22
Ki [5]: 31000 nM
Ki [2]: 1400 nM

O=C(OC1CC2CCCC1N2)c1ccc([N+](=O)[O-])cc1 (stereo not given)
Ratio [1]: 5.1
pKi [3]: 6.44
pKi [4]: 6.35
Ki [5]: 2200 nM
pKi [11]: 6.35
pKi [6]: 7.54
pKi [7]: 6.11
pKi [8]: 7.32
pKi [9]: 6.51
Ki [2]: 430 nM

CN(C)C(=O)OC1CC2CCCC1N2C (stereo not given)
Ratio [1]: > 60

C[C@@H]1O[C@H](C[N+](C)(C)C)C[C@H]1O [MUSCARINE]
inhibition [12]: 2%
pKi [4]: 7.64
pKi [8]: 5.85
inhibition [13]: 28%

CCC(=O)OC1CC2CCCC1N2C (stereo not given)
Ratio [1]: > 70
inhibition [12]: 46%
pKi [3]: 5.62
pKi [4]: 5.85
pKi [6]: 6.64
pKi [8]: 6.02
pKi [9]: 5.92
Ki [2]: 1500 nM
pKi [10]: 5.13

COc1ccccc1C(=O)OC1CC2CCCC1N2 (stereo not given)
Ratio [1]: 19
Ki [5]: 53000 nM
Ki [2]: 2800 nM

CC(=O)OC1CC2CCCC1N2C (stereo not given)
Ratio [1]: 330
pKi [4]: 6.05
Ki [5]: 280000 nM
pKi [6]: 5.64
Ki [14]: 92 nM
pKi [9]: 5.36
Ki [15]: 17000 nM
inhibition (at 100uM) [16]: 11%
Ki [2]: 860 nM

O=C(Nc1ccccc1)OC1CC2CCCC1N2 (stereo not given)
Ratio [1]: > 25
Ki [2]: 4300 nM

O=C1CCCN1CC#CCN1CCCC1 [OXOTREMORINE]
Ratio [1]: 4500
inhibition [12]: 9%
pKi [3]: 6.18
pKi [4]: 8.82
Ki [5]: 58000 nM
pKi [6]: 7.77
Ki [14]: 6 nM
pKi [8]: 6.80
pKi [9]: 7.42
inhibition [13]: 28%
Ki [15]: 330 nM
Ki [2]: 13 nM

O=C(OC1CC2CCCC1N2)c1ccccc1 (stereo not given)
Ratio [1]: 1.2
pKi [3]: 6.52
pKi [4]: 6.30
Ki [5]: 800 nM
pKi [6]: 6.92
pKi [7]: 5.55
Ki [14]: 440 nM
pKi [8]: 6.72
pKi [9]: 5.77
Ki [15]: 1400 nM
Ki [2]: 650 nM
pKi [10]: 5.89

CN1C2CCCC1C(OS(C)(=O)=O)C2 (stereo not given)
Ratio [1]: > 100
Ki [2]: 2200 nM

CN(C)C(=O)OC1CC2CCCC1N2 (stereo not given)
Ratio [1]: > 60
Ki [2]: 1700 nM

O=C(OC1CC2CCCC1N2)C1CCCCC1 (stereo not given)
Ratio [1]: 13
pKi [3]: 5.44
pKi [4]: 5.66
Ki [5]: 25000 nM
pKi [6]: 6.01
pKi [7]: 4.70
pKi [8]: 6.08
pKi [9]: 5.05
Ki [2]: 1900 nM
pKi [10]: 5.12

CCCC(=O)OC1CC2CCCC1N2 (stereo not given)
Ratio [1]: 190
Ki [5]: 30000 nM
Ki [2]: 160 nM

CN1C2CCCC1C(OC(=O)c1ccccc1)C2 (stereo not given)
Ratio [1]: 2.1
pKi [3]: 6.59
pKi [4]: 6.04
Ki [5]: 1800 nM
pKi [6]: 6.57
pKi [7]: 5.11
Ki [14]: 790 nM
pKi [8]: 6.39
pKi [9]: 5.89
Ki [15]: 1400 nM
Ki [2]: 860 nM
pKi [10]: 5.49

CS(=O)(=O)OC1CC2CCCC1N2 (stereo not given)
Ratio [1]: > 100
Ki [2]: 2700 nM

CN1C2CCCC1C(OC(=O)Nc1ccccc1)C2 (stereo not given)
Ratio [1]: > 20
Ki [2]: 5100 nM

CN1C2CCCC1C(OC(=O)C1CCCCC1)C2 (stereo not given)
Ratio [1]: 13
pKi [3]: 6.14
pKi [4]: 6.15
Ki [5]: 8500 nM
pKi [6]: 6.35
pKi [7]: 5.15
pKi [8]: 6.52
pKi [9]: 5.80
Ki [2]: 860 nM
pKi [10]: 5.52

CCCC(=O)OC1CC2CCCC1N2C (stereo not given)
Ratio [1]: 28
Ki [5]: 34000 nM
Ki [2]: 1200 nM

CCC(=O)OC1CC2CCCC1N2 (stereo not given)
Ratio [1]: 1100
pKi [3]: 5.51
pKi [4]: 7.07
Ki [5]: 32000 nM
pKi [6]: 6.72
pKi [8]: 6.18
inhibition [17]: 36%
pKi [9]: 6.72
Ki [2]: 30 nM
pKi [10]: 4.94

COc1ccc(C(=O)OC2CC3CCCC2N3C)cc1 (stereo not given)
Ratio [1]: > 15
Ki [2]: 7300 nM

CC(=O)OC1CC2CCCC1N2 (stereo not given)
Ratio [1]: 11000
Ki [18]: 22000 nM
pKi [4]: 8.40
pKi [6]: 8.34
Ki [14]: 0.95 nM
pKi [9]: 8.15
Ki [15]: 400 nM
Ki [2]: 2 nM

From ChEMBL document CHEMBL1133759, “6beta-Acyloxy(nor)tropanes: affinities for antagonist/agonist binding sites on transfected and native muscarinic receptors” (J Med Chem, 2000)
